Measurements reported in publication PMC12514245, “Impaired migration and lung invasion of human melanoma by a novel small molecule targeting the transmembrane domain of death receptor p75^NTR” (EMBO Molecular Medicine, 2025).
Values joined by “and” are separate entries in the source; they are usually repeats but may differ in a detail not shown here. Identical values can stand only once. Like-named read-outs stand apart in the source and are kept apart here.

Columns and labels:
[1] = biological target: T1, Matrix-2 protein (M2) TMD (Influenza A virus, UniProt P06821); format: cell-based; conditions: for GFP/OD630, M2, mean: N=3
T1 construct: unrelated TMDs from α2β3 integrin and Matrix-2 protein (M2); expressed in transfected cells
T1 sequence (P06821 23-43 limits assumed): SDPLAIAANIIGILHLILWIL

A875 shp75 cells [2] = experiment: Cell viability (Presto Blue), A875 shp75; format: cell-based, human; conditions: for viability at 5 µM: Div17E5 5 uM
Procedure: To measure the cytotoxic effect of Div17E5, A875 NT or shp75 cells were seeded at 2000 cells per well (in 100 μL DMEM) in a 96-well plate and incubated for 12 h. Next, Div17E5 at various concentrations was added and incubated at 37 °C in 5% CO2 for 2 days. Following treatment, 10 μL Presto Blue® (resazurin, ThermoFIsher) was added to each well of the 96-well plate and incubated for 2 h at 37 °C in 5% CO2. Cellular fluorescence in each well was measured at 535 nm excitation and 615 nm emission using a microtiter plate reader. Data was converted into the relative cell viability (%) from the fluorescence of cells in each treatment relative to that of the DMSO control group (set as 100%).

[3] = format: in vivo; conditions: oral gavage 200 mg/kg daily (5 days on, 2 days off), 3 weeks; female SCID
A875 shp75 cells [4] = experiment: Filopodia per cell (phalloidin staining), A875 shp75; format: cell-based, human; conditions: for filopodia per cell (mean of 3 experiments) / filopodia per cell (mean of one experiment): A875 shp75; for filopodia per cell (mean of one experiment): EXP1-EXP3
Procedure: For assessment of actin filaments, A875 cells were plated on glass coverslips in 24-well plate at a confluency of 3 × 10^4 cells/well. One day after plating, the cells were treated with 1 μM or 5 μM Np75-4A22 and NGF (100 ng/ml) or PBS for 24 h. Cells were fixed in 4% paraformaldehyde, permeabilized in 0.1% Triton-X-100, stained with Phalloidin-iFluor 488 (Abcam) at 1:2000 dilution and DAPI for 1 h. Coverslips were mounted and visualized in a laser confocal microscope.

[5] = mouse, in vivo
[6] = A875 shp75, EXP3, 1 uM 4A22 + 100 ng/ml NGF
[7] = A875 shp75 cells, EXP1, 1 uM 4A22, wells 1-4
[8] = A875 shp75 cells, EXP1, 5 uM 4A22 + 100 ng/ml NGF, wells 1-4
[9] = A875 shp75 cells, EXP2, 1 uM 4A22 + 100 ng/ml NGF, wells 1-4
[10] = A875 shp75 cells, EXP2, 5 uM 4A22 + 100 ng/ml NGF, wells 1-4
[11] = A875 shp75 cells, EXP2, 5 uM 4A22, wells 1-4

Oc1ccc(-c2cncc(Nc3ccc(Br)c(Cl)c3)n2)cc1 [Div17E5]
GFP/OD630, M2, single replicates ([1]; Div17E5 1 μM): 96 and 90 and 113 | GFP/OD630, M2, mean ([1]; Div17E5 1 μM): 100 | GFP/OD630, M2, single replicates ([1]; Div17E5 2.5 μM): 94 (2×) and 111 | GFP/OD630, M2, mean ([1]; Div17E5 2.5 μM): 100 | GFP/OD630, M2, single replicates ([1]; Div17E5 5 μM): 89 and 109 and 92 | GFP/OD630, M2, mean ([1]; Div17E5 5 μM): 97 | GFP/OD630, M2, single replicates ([1]; Div17E5 10 μM): 90 and 105 and 99 | GFP/OD630, M2, mean ([1]; Div17E5 10 μM): 98 | GFP/OD630, M2, single replicates ([1]; Div17E5 20 μM): 109 and 89 and 98 | GFP/OD630, M2, mean ([1]; Div17E5 20 μM): 99 | GFP/OD630, M2, single replicates ([1]; Div17E5 50 μM): 112 and 92 and 109 | GFP/OD630, M2, mean ([1]; Div17E5 50 μM): 104 | Cell Viability, n1-n3 (A875 shp75 cells [2]; Div17E5 0.5 uM, 2 days): 104% | Cell Viability, n1-n3 (A875 shp75 cells [2]; Div17E5 1 uM, 2 days): 109% and 112% | Cell Viability, n1-n3 (A875 shp75 cells [2]; Div17E5 1.5 uM, 2 days): 100% | Cell Viability, n1-n3 (A875 shp75 cells [2]; Div17E5 2 uM, 2 days): 96% and 100% | Cell Viability, n1-n3 (A875 shp75 cells [2]; Div17E5 2.5 uM, 2 days): 90% and 99% | Cell Viability, n1-n3 (A875 shp75 cells [2]; Div17E5 7.5 uM, 2 days): 81% and 91% | Cell Viability, n1-n3 (A875 shp75 cells [2]; Div17E5 10 uM, 2 days): 90% and 78% | viability at 0.5 µM (A875 shp75 cells [2]; Homo sapiens, A875, 48 h, Div17E5 0.5 uM, 2 days, N=3): 103% | viability at 2 µM (A875 shp75 cells [2]; Homo sapiens, A875, 48 h, Div17E5 2 uM, 2 days, N=3, read-out: Cell Viability, Mean): 101% | viability at 2 µM (A875 shp75 cells [2]; Homo sapiens, A875, 48 h, Div17E5 2 uM, 2 days, read-out: Cell Viability, n1-n3): 107% | viability at 2.5 µM (A875 shp75 cells [2]; Homo sapiens, A875, 48 h, Div17E5 2.5 uM, 2 days, N=3, read-out: Cell Viability, Mean): 92% | viability at 2.5 µM (A875 shp75 cells [2]; Homo sapiens, A875, 48 h, Div17E5 2.5 uM, 2 days, read-out: Cell Viability, n1-n3): 86% | viability at 5 µM (A875 shp75 cells [2]; Homo sapiens, A875, 48 h, 2 days, N=3, read-out: Cell Viability, Mean): 93% | viability at 5 µM (A875 shp75 cells [2]; Homo sapiens, A875, 48 h, 2 days, read-out: Cell Viability, n1-n3): 101% | viability at 7.5 µM (A875 shp75 cells [2]; Homo sapiens, A875, 48 h, Div17E5 7.5 uM, 2 days, N=3, read-out: Cell Viability, Mean): 86% | viability at 7.5 µM (A875 shp75 cells [2]; Homo sapiens, A875, 48 h, Div17E5 7.5 uM, 2 days, read-out: Cell Viability, n1-n3): 85% | viability at 10 µM (A875 shp75 cells [2]; Homo sapiens, A875, 48 h, Div17E5 10 uM, 2 days, N=3, read-out: Cell Viability, Mean): 84% | viability at 10 µM (A875 shp75 cells [2]; Homo sapiens, A875, 48 h, Div17E5 10 uM, 2 days, read-out: Cell Viability, n1-n3): 85% | cell viability (A875 shp75 cells [2]; above 10 μM): sensitive | cell viability (A875 shp75 cells [2]; doses up to 10 μM): largely refractory

Cc1cccc(-c2cncc(Nc3ccc(Br)c(Cl)c3Cl)n2)c1C [Np75-4A22]
mortality, clinical signs and gross histological pathology [3]: No mortality or adverse clinical signs | filopodia per cell, compound alone (A875 shp75 cells [4]; 1 or 5 μM): no effects per se | filopodia per cell (single image) (A875 shp75 cells [4]; [6]): 35 | filopodia per cell (well mean) (A875 shp75 cells [4]; [6]): 35.0833 and 29.3333 and 46.5 and 31.1667 | filopodia per cell (single image) (A875 shp75 cells [4]; A875 shp75, EXP3, 5 uM 4A22): 35 | filopodia per cell (well mean) (A875 shp75 cells [4]; A875 shp75, EXP3, 5 uM 4A22): 26.25 and 40.3333 and 46.1111 and 41.3333 | filopodia per cell (well mean) (A875 shp75 cells [4]; A875 shp75, EXP3, 5 uM 4A22 + 100 ng/ml NGF): 35.1667 and 32.8333 and 43.3889 and 37.5 | filopodia per cell (mean of 3 experiments) (A875 shp75 cells [4]; 100ng/ml NGF&1uM 4A22): 37.2384 | filopodia per cell (mean of one experiment) (A875 shp75 cells [4]; 100ng/ml NGF&1uM 4A22): 38.132 and 38.0625 and 35.5208 | filopodia per cell (mean of 3 experiments) (A875 shp75 cells [4]; 100ng/ml NGF&5uM 4A22): 37.6510 | filopodia per cell (mean of one experiment) (A875 shp75 cells [4]; 100ng/ml NGF&5uM 4A22): 35.6615 and 40.0695 and 37.2222 | filopodia per cell (mean of 3 experiments) (A875 shp75 cells [4]; 1uM 4A22): 34.8819 | filopodia per cell (mean of one experiment) (A875 shp75 cells [4]; 1uM 4A22): 30.6458 and 39.4583 and 34.5417 | filopodia per cell (mean of 3 experiments) (A875 shp75 cells [4]; 5uM 4A22): 36.6829 | filopodia per cell (mean of one experiment) (A875 shp75 cells [4]; 5uM 4A22): 35.8958 and 35.6458 and 38.5069 | filopodia per cell (well mean) (A875 shp75 cells [4]; A875 shp75 cells, EXP1, 1 uM 4A22 + 100 ng/ml NGF, wells 1-4): 34.0833 and 42.6667 and 40.1111 and 35.6667 | filopodia per cell (single image) (A875 shp75 cells [4]; [7]): 35 | filopodia per cell (well mean) (A875 shp75 cells [4]; [7]): 28.25 and 31.6667 and 30.4167 and 32.25 | filopodia per cell (single image) (A875 shp75 cells [4]; [8]): 35 | filopodia per cell (well mean) (A875 shp75 cells [4]; [8]): 38.8333 and 30.1667 and 37.3125 and 36.3333 | filopodia per cell (well mean) (A875 shp75 cells [4]; A875 shp75 cells, EXP1, 5 uM 4A22, wells 1-4): 36.5 and 34.5 and 32.75 and 39.8333 | filopodia per cell (single image) (A875 shp75 cells [4]; [9]): 35 | filopodia per cell (well mean) (A875 shp75 cells [4]; [9]): 43.1667 and 38 and 39.3333 and 31.75 | filopodia per cell (well mean) (A875 shp75 cells [4]; A875 shp75 cells, EXP2, 1 uM 4A22, wells 1-4): 35.6667 and 37.1667 and 36.6667 and 48.3333 | filopodia per cell (single image) (A875 shp75 cells [4]; [10]): 35 | filopodia per cell (well mean) (A875 shp75 cells [4]; [10]): 43.6667 and 38.1667 and 45.6111 and 32.8333 | filopodia per cell (single image) (A875 shp75 cells [4]; [11]): 35 | filopodia per cell (well mean) (A875 shp75 cells [4]; [11]): 36.5 and 31 and 38.1667 and 36.9167 | single dose toxicity [5]: No mortality or abnormal clinical signs
